{"source": "patent US20110218515A1", "about": "“Methods for Treating Acute Myocardial Infarctions and Associated Disorders” (The Regents of the University of California, priority 2009, published 2011)", "key": {"[1]": {"system": "congestive heart failure dogs, coronary perfused left ventricular preparation", "test": "VF organization index analysis, pacing-induced heart failure dogs", "format": "in vivo", "set-up": "key to OI Spatial CoV / OI Temporal CoV: coefficient of variance = SD/mean", "conditions": "CHF dogs with PFD", "source_text": "(§1) Animal Models: Twenty-four dogs weighing 25-30 Kg were divided into three groups: control (n=11), congestive heart failure (n=7), and congestive heart failure with the antifibrotic drug pirfenidone (n=6). Heart Failure (CHF) was induced in 7 dogs via four weeks of rapid ventricular pacing via a lead placed in the RV and pulse generator set to pace at 240 bpm followed by ablation of the AV node to create complete heart block, as described in Li, et al., Circulation 1999; 100:87-95. Ventricular function was monitored weekly with transthoracic echocardiography for 4 weeks. At 4 weeks, the optical mapping study was performed.\n(§2) Heart Failure with Pirfenidone (PFD): Heart failure was induced in 6 dogs as described above and PFD was administered as described in Lee et al., Circulation 2006; 114; 1703-12. Oral PFD (800 mg 3 times per day; InterMune, Brisbane, Calif.) was started 2 days before the initiation of pacing and was discontinued >6 half-lives (24 hours) before the optical mapping study.\n(§3) With an optical mapping system described in Wu et al., J Cardiovasc Electrophysiol 1998; 9:1336-47, optical recordings were then made from 4-cm^2 area on 3 surfaces of the preparation (epicardial, endocardial (including the papillary muscle, and transmural) by a 16×16 photodiode array (C4657 Hamamatsu, Bridgewater, N.J.) that recorded 256 simultaneous optical action potentials. During optical recordings from a preparation, contractility was blocked with 15 mM 2,3-butadione monoxime (BDM; Sigma-Aldrich)11. Plunge electrodes were placed on the recording surface around the field of view for both pacing and monitoring. Two plunge electrodes were dedicated for recording a bipolar signal for monitoring the electrical activity of the preparation. VF was initiated with either extra stimuli or with rapid burst pacing at a cycle length of 50 ms, a pulse width of 9.9 ms, and an output of 9.9 mA. Several 4-s episodes of VF were recorded on each surface in each preparation. Activation movies of the VF were then viewed, and the activation patterns were determined. After termination of VF, signals were obtained during pacing at 250 ms and isochronal maps of activation were constructed to look at conduction. Activation patterns and wave-front direction during VF were determined from raw fluorescence movies (isopotential). […] VF was defined as rapid and irregular activations on the bipolar signal used for monitoring the electrical activity of the preparation.\n(§4) Signal Processing and Frequency Domain Analysis: The signals obtained from the optical mapping recordings were sampled at 2,000 Hz, and for each signal the dominant frequency (DF) was determined and the organization was calculated as described Everett, et al., IEEE Trans Biomed Eng 2001; 48:969-78. Briefly, a fast Fourier transform (FFT) was calculated on the digitally filtered waveform. The data were detrended and multiplied by a Hamming window. The largest peak of the resulting magnitude spectrum was identified, and the positions of the harmonic peaks were determined on the basis of its position. The areas under the largest peak and three of its harmonic peaks were each calculated over a 1-Hz window. This produced an area under four peaks. The total area of the spectrum was calculated from 2 Hz up to but not including the fifth harmonic peak. The ratio of the power under the harmonic peaks to the total power in this range was calculated, and the resulting number was defined as the organization index (OI). The OI was theorized to represent the organization of AF for that signal at that period in time. To calculate the variance of the DFs, spatial coefficient of variance (SD/mean) of the DFs during a single episode of AF among all recording sites and temporal coefficient of variance of average DFs from among AF episodes for each mapping field within each preparation were calculated. Discrete, stable, high frequency areas were noted. […]"}, "[2]": {"system": "congestive heart failure dogs, coronary perfused left ventricular preparation", "test": "VF frequency domain analysis (dominant frequency), pacing-induced heart failure dogs", "format": "in vivo", "conditions": "CHF dogs with PFD", "source_text": "as §1, §2, §3, §4"}, "[3]": {"system": "ischemia-reperfusion rat model", "conditions": "in vivo", "procedure": "After baseline echocardiography, thirty male Sprague-Dawley rats, ages 6-10 weeks, underwent myocardial infarction using an ischemia-reperfusion model. Briefly, rats were anesthetized using inhaled isoflurane (5% induction, 2.5% maintenance, O2 output 1 L/min) and positioned supine on an electrically warmed animal surgery platform. Rats were intubated using a 16-gauge i.v. catheter and then ventilated using a Harvard rodent respirator. After a left thoracotomy and pericardiotomy were performed, a 7-0 Ticron suture was introduced into the myocardium, using the left atrial appendage and right outflow tract as landmarks. The depth of entry was 2 mm, which was slightly greater than the level of the left coronary artery. Both suture ends were then threaded through a PE-90 polyethylene tube 6 in. in length to form a “snare loop” around the artery, closed by pulling on the free ends of the suture. […] The suture was then tightened to occlude the artery for 20 minutes and then removed to allow for reperfusion. The chest was then closed with 5-0 prolene suture, and the animal was allowed to recover. After one week and repeat echocardiography, rats were randomized to placebo rodent feed (control group, n=15) or rodent feed mixed with 1.2% pirfenidone (PFD) (treatment group, n=15) for four weeks. All experiments and data analyses were performed with the operator blinded to treatment group. […]"}}, "data": [{"smiles": "Cc1ccc(=O)n(-c2ccccc2)c1", "note": "[pirfenidone]", "values": [{"measurement": "Max OI", "setting": "[1]; Endocardium", "result": "0.61 ± 0.05"}, {"measurement": "Mean OI", "setting": "[1]; Endocardium", "result": "0.45 ± 0.05"}, {"measurement": "OI Spatial CoV", "setting": "[1]; Endocardium", "result": "0.16 ± 0.03"}, {"measurement": "OI Temporal CoV", "setting": "[1]; Endocardium", "result": "0.13 ± 0.01"}, {"measurement": "Max OI", "setting": "[1]; Epicardium", "result": "0.62 ± 0.05"}, {"measurement": "Mean OI", "setting": "[1]; Epicardium", "result": "0.44 ± 0.05"}, {"measurement": "OI Spatial CoV", "setting": "[1]; Epicardium", "result": "0.17 ± 0.01"}, {"measurement": "OI Temporal CoV", "setting": "[1]; Epicardium", "result": "0.14 ± 0.01"}, {"measurement": "Max OI", "setting": "[1]; Transmural", "result": "0.65 ± 0.06"}, {"measurement": "Mean OI", "setting": "[1]; Transmural", "result": "0.48 ± 0.05"}, {"measurement": "OI Spatial CoV", "setting": "[1]; Transmural", "result": "0.17 ± 0.03"}, {"measurement": "OI Temporal CoV", "setting": "[1]; Transmural", "result": "0.13 ± 0.01"}, {"measurement": "dogs with at least one surface with VF characterized by high DF areas", "setting": "[2]; CHF 6 of 7, Controls 3 of 11", "result": "3 of 6"}, {"measurement": "gradient of frequencies over distance, transmural surface", "setting": "[2]; untreated heart failure animals have a very large gradient", "result": "preserved the transmural gradient to that similar to control animals"}, {"measurement": "DF Spatial CoV", "setting": "[2]; Endocardium", "result": "0.11 ± 0.04"}, {"measurement": "DF Temporal CoV", "setting": "[2]; Endocardium", "result": "0.07 ± 0.03"}, {"measurement": "Max DF", "setting": "[2]; Endocardium", "result": "10.44 ± 1.32", "unit": "Hz"}, {"measurement": "Mean DF", "setting": "[2]; Endocardium", "result": "8.29 ± 0.68", "unit": "Hz"}, {"measurement": "DF Spatial CoV", "setting": "[2]; Epicardium", "result": "0.09 ± 0.04"}, {"measurement": "DF Temporal CoV", "setting": "[2]; Epicardium", "result": "0.05 ± 0.01"}, {"measurement": "Max DF", "setting": "[2]; Epicardium", "result": "10.92 ± 0.98", "unit": "Hz"}, {"measurement": "Mean DF", "setting": "[2]; Epicardium", "result": "9.17 ± 1.08", "unit": "Hz"}, {"measurement": "DF Spatial CoV", "setting": "[2]; Transmural", "result": "0.14 ± 0.06"}, {"measurement": "DF Temporal CoV", "setting": "[2]; Transmural", "result": "0.08 ± 0.02"}, {"measurement": "Max DF", "setting": "[2]; Transmural", "result": "10.24 ± 1.89", "unit": "Hz"}, {"measurement": "Mean DF", "setting": "[2]; Transmural", "result": "7.93 ± 1.52", "unit": "Hz"}, {"measurement": "mortality, CHF, or arrhythmias in treated animals", "setting": "[3]", "result": "No increased mortality, CHF, or arrhythmias"}]}]}
